Tests used:
severe SMA mouse model = assay: Righting reflex test; type: in vivo; conditions: 40 mg/kg s.c. at PD0, compared with the other groups
Description: To evaluate the effects of systemic DG9-PMO treatment on muscle strength and the function of motor neurons, we used several functional tests and compared motor function in the treated and NT mice at various time points. We performed the hind limb suspension (HLS) assay and the righting reflex test during the early weeks of life. […] It should be noted that the results beyond PD12 are biased, as only the healthiest unconjugated PMO–, MOE-, and R6G-PMO–treated mice survived to these time points.
This spontaneous ability of the mice to right themselves up was tested from PD2 until the weaning stage PD20. The neonates were placed on their backs, and the time taken to reposition and place all 4 paws on the ground was noted. The recording time was a maximum of 60 seconds. Each neonate underwent 3 trials, with a resting period of at least 10 minutes between trials. The data are expressed as the mean time to complete the righting reflex test ± SEM.

SMN2 (ISS-N1 intron 7) [1] = assay: FL-SMN2 expression relative to Δ7 SMN2 transcripts by RT-qPCR in tissues of severe SMA mice; type: in vivo, mouse; conditions: both doses (40 and 80 mg/kg s.c. at PD0), tissues at PD7, peripheral and CNS tissues, RT-qPCR ΔΔCt
Procedure: To evaluate the change of FL-SMN2 expression relative to Δ7 SMN2 transcripts, we used real-time quantitative PCR (RT-qPCR) at PD7; the mice were treated with DG9-PMO at PD0. In both doses, DG9-PMO treatment led to a 4- to 30-fold higher FL-SMN2 expression than NT control in both peripheral and CNS tissues (Figure 2A and Supplemental Figure 3A). It also led to a ~5-fold increase in FL-SMN2 expression when compared with unconjugated PMO, MOE, and R6G-PMO treatments in the majority of the tissues (Figure 2A, Supplemental Figure 3A, and Supplemental Figure 1F). […] SMN levels were higher in CNS tissues in the DG9-PMO–treated than MOE-treated mice, though no statistical significance was seen. […] SMN levels were similar in DG9-PMO and MOE in the tissues collected from mice at PD30.
Injections were carried out using a 30-gauge Hamilton syringe. SMA mice identified following genotyping were randomly assigned to a treatment group. […]
(§1) Frozen tissues harvested at PD7 were sectioned using a cryostat (Leica CM 1950) into 20 μm sections. […] The relative gene expression for FL-SMN2 over the deletion of SMN2 transcripts without exon 7 was normalized to the NT control samples and analyzed using the ΔΔCt method. The expression of denervation markers relative to 18S was normalized to the healthy heterozygous control samples collected at PD30 and analyzed using the ΔΔCt method.

SMN2 (ISS-N1 intron 7) [2] = assay: FL-SMN2 expression by RT-qPCR in mild SMA model (F0 mice); type: in vivo, mouse; conditions: s.c. at PD5; PD7 (40 mg/kg) and PD13 (80 mg/kg)
Description: (§2) To target the motor neurons in the CNS via systemic administration, AOs need to cross the BBB in patients with SMA. For this study, we used a milder SMA model (F0) (Smn^–/– SMN2^+/+) with 4 SMN2 copies obtained from Jackson Laboratory (JAX 005058) that are viable, are fertile, and have shortened, thick tails since severe SMA model mice have a median survival of only 8 days, making it difficult to evaluate the treatment efficacy when the BBB is mature. […] To determine the ability of DG9-PMO to reach the CNS, we subcutaneously injected 40 mg/kg or 80 mg/kg fluorescently tagged DG9-PMO into F0 mice at PD0 or PD5. […] We also performed an ELISA to examine the biodistribution of unconjugated PMO and DG9-PMO at PD7.
as §1

[3] = ELISA, PMO uptake in mild SMA model (F0 mice) injected at PD5; type: in vivo, mouse; conditions: 40 mg/kg s.c. at PD5, tissues at PD7, ELISA
Description: as §2
ELISA was performed as described previously ([51], [69]). In brief, protein was extracted from frozen tissue sections (~20 μm) using RIPA buffer with cOmplete, Mini, EDTA-free protease inhibitor cocktail. The probes (Integrated DNA Technologies) were designed complementary to the PMO sequence with phosphorothioated backbones at the 5′ and 3′ ends. The 5′ and 3′ ends were labeled with digoxigenin and biotin, respectively. […] Attophos AP Fluorescent Substrate (Promega) was added to the PMO/DG9-PMO probes, and fluorescence was detected at 444 nm excitation and 555 nm emission by using a monochromator SpectraMax M3 plate reader (Molecular Devices).

CD68+ macrophages = assay: CD68+ macrophage detection in quadriceps muscle; type: in vivo, mouse; conditions: 40 mg/kg s.c. at PD0, quadriceps muscle sections at PD7
Description: Peptides can typically pose as antigens, leading to immune reactions. Therefore, we examined the susceptibility of DG9-PMO to cause immune activation at an early neonatal stage, by looking at CD68^+ cells, indicative of circulating and tissue macrophages, in the quadriceps muscle sections at PD7 (Supplemental Figure 9, A and B). […] The apparent reduction in circulating macrophages following DG9-PMO treatment is likely due to amelioration of the atrophic musculature, which would compensate for any elevation seen from the treatment itself.
Cryosections (7 μm) of the quadriceps muscle were fixed with 4% PFA. The sections were incubated with rat anti-mouse CD68 antibody (MCA1957T, Bio-Rad). The number of CD68^+ cells was counted and averaged from at least 5 sections per sample at random intervals at 20× original magnification.

CC(=O)N[C@@H](Cc1ccc(O)cc1)C(=O)N[C@@H](C)C(=O)N[C@H](CCCNC(=N)N)C(=O)N[C@H](C(=O)N[C@@H](CCCNC(=N)N)C(=O)N[C@@H](CCCNC(=N)N)C(=O)N[C@H](CCCNC(=N)N)C(=O)NCC(=O)N1CCC[C@H]1C(=O)N[C@@H](CCCNC(=N)N)C(=O)NCC(=O)N[C@@H](Cc1ccc(O)cc1)C(=O)N[C@@H](C)C(=O)N[C@H](CCCNC(=N)N)C(=O)N[C@H](C(=O)N[C@@H](CCCNC(=N)N)C(=O)N[C@@H](CCCNC(=N)N)C(=O)N[C@H](CCCNC(=N)N)C(=O)NCC(=O)N1CCC[C@H]1C(=O)N[C@@H](CCCNC(=N)N)C(=O)N[C@H](CCCNC(=N)N)C(=O)N1C[C@@H](COP(=O)(N(C)C)N2C[C@@H](COP(=O)(N(C)C)N3C[C@@H](COP(=O)(N(C)C)N4C[C@@H](COP(=O)(N(C)C)N5C[C@@H](COP(=O)(N(C)C)N6C[C@@H](COP(=O)(N(C)C)N7C[C@@H](COP(=O)(N(C)C)N8C[C@@H](COP(=O)(N(C)C)N9C[C@@H](COP(=O)(N(C)C)N%10C[C@@H](COP(=O)(N(C)C)N%11C[C@@H](COP(=O)(N(C)C)N%12C[C@@H](COP(=O)(N(C)C)N%13C[C@@H](COP(=O)(N(C)C)N%14C[C@@H](COP(=O)(N(C)C)N%15C[C@@H](COP(=O)(N(C)C)N%16C[C@@H](COP(=O)(N(C)C)N%17C[C@@H](COP(=O)(N(C)C)N%18C[C@@H](COP(=O)(N(C)C)N%19CCC(C(N)=O)CC%19)O[C@@H](n%19cc(C)c(=O)[nH]c%19=O)C%18)O[C@@H](n%18ccc(N)nc%18=O)C%17)O[C@@H](n%17cnc%18c(N)ncnc%18%17)C%16)O[C@@H](n%16ccc(N)nc%16=O)C%15)O[C@@H](n%15cc(C)c(=O)[nH]c%15=O)C%14)O[C@@H](n%14cc(C)c(=O)[nH]c%14=O)C%13)O[C@@H](n%13cc(C)c(=O)[nH]c%13=O)C%12)O[C@@H](n%12ccc(N)nc%12=O)C%11)O[C@@H](n%11cnc%12c(N)ncnc%12%11)C%10)O[C@@H](n%10cc(C)c(=O)[nH]c%10=O)C9)O[C@@H](n9cnc%10c(N)ncnc%109)C8)O[C@@H](n8cnc9c(N)ncnc98)C7)O[C@@H](n7cc(C)c(=O)[nH]c7=O)C6)O[C@@H](n6cnc7c(=O)[nH]c(N)nc76)C5)O[C@@H](n5ccc(N)nc5=O)C4)O[C@@H](n4cc(C)c(=O)[nH]c4=O)C3)O[C@@H](n3cnc4c(=O)[nH]c(N)nc43)C2)O[C@@H](n2cnc3c(=O)[nH]c(N)nc32)C1)C(C)C)C(C)C (some centres unmarked) [DG9-PMO]
time to right (righting reflex) (severe SMA mouse model): significantly shorter time to right themselves on their paws between PD6 and PD10 | FL-SMN2 expression (relative to Δ7 SMN2), fold higher than NT control (SMN2 (ISS-N1 intron 7) [1]): 4- to 30 fold | FL-SMN2 expression, mild SMA model (F0) (SMN2 (ISS-N1 intron 7) [2]): significant increase in the FL-SMN2 expression in both the CNS and peripheral tissues | uptake of PMO versus unconjugated PMO, mild SMA model (F0) [3]: significantly increased the uptake of PMO in the CNS and peripheral tissues | number of CD68+ macrophages compared with the Hets (CD68+ macrophages): no significant difference

Reference: article PMC10077475, “DG9-conjugated morpholino rescues phenotype in SMA mice by reaching the CNS via a subcutaneous administration” (JCI Insight, 2023)
